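Growth conditions: 96-well plates. Treatment: test compound, 48 hours, 5 concentrations. Analysis: linear interpolation between bracketing concentrations; unreached endpoints set to highest concentration. TGI is the concentration that stops growth completely.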
Key:
Experiment in all cases: NCI tumour cell line growth inhibition, 48 h
K-562 leukemia = tested on: K-562 leukemia
UO-31 renal = tested on: UO-31 renal
HCC-2998 colon = tested on: HCC-2998 colon
RXF 393 renal = tested on: RXF 393 renal
HT29 colon = tested on: HT29 colon
M14 melanoma = tested on: M14 melanoma
U251 CNS = tested on: U251 CNS
KM20L2 colon = tested on: KM20L2 colon
SF-268 CNS = tested on: SF-268 CNS
RPMI-8226 leukemia = tested on: RPMI-8226 leukemia
HL-60(TB) leukemia = tested on: HL-60(TB) leukemia
NCI-H23 lung = tested on: NCI-H23 lung
A498 renal = tested on: A498 renal
SNB-19 CNS = tested on: SNB-19 CNS
MOLT-4 leukemia = tested on: MOLT-4 leukemia
SNB-75 CNS = tested on: SNB-75 CNS
ACHN renal = tested on: ACHN renal
SNB-78 CNS = tested on: SNB-78 CNS
CCRF-CEM leukemia = tested on: CCRF-CEM leukemia
SR leukemia = tested on: SR leukemia
IGROV1 ovarian = tested on: IGROV1 ovarian
HOP-62 NSCLC = tested on: HOP-62 NSCLC
SK-MEL-28 melanoma = tested on: SK-MEL-28 melanoma
DLD-1 colon = tested on: DLD-1 colon
A549 NSCLC = tested on: A549 NSCLC
DMS 114 small cell lung = tested on: DMS 114 small cell lung
UACC-257 melanoma = tested on: UACC-257 melanoma
OVCAR-4 ovarian = tested on: OVCAR-4 ovarian
COLO 205 colon = tested on: COLO 205 colon
M19-MEL melanoma = tested on: M19-MEL melanoma
SK-MEL-2 melanoma = tested on: SK-MEL-2 melanoma
NCI-H522 lung = tested on: NCI-H522 lung
HOP-18 NSCLC = tested on: HOP-18 NSCLC
SF-295 CNS = tested on: SF-295 CNS
MALME-3M melanoma = tested on: MALME-3M melanoma
EKVX NSCLC = tested on: EKVX NSCLC
SW-620 colon = tested on: SW-620 colon
SN12C renal = tested on: SN12C renal
SK-OV-3 ovarian = tested on: SK-OV-3 ovarian
NCI-H226 lung = tested on: NCI-H226 lung
SF-539 CNS = tested on: SF-539 CNS
786-0 renal = tested on: 786-0 renal
DMS 273 small cell lung = tested on: DMS 273 small cell lung
LXFL 529 NSCLC = tested on: LXFL 529 NSCLC
OVCAR-3 ovarian = tested on: OVCAR-3 ovarian
XF 498 CNS = tested on: XF 498 CNS
OVCAR-8 ovarian = tested on: OVCAR-8 ovarian
HOP-92 NSCLC = tested on: HOP-92 NSCLC
UACC-62 melanoma = tested on: UACC-62 melanoma
HCT-116 colon = tested on: HCT-116 colon
HCT-15 colon = tested on: HCT-15 colon
KM12 colon = tested on: KM12 colon

SMILES: CCOC(=O)N(c1ccccc1)N(CC)C(=O)/C(C)=N/Nc1ccc([N+](=O)[O-])cc1
- TGI (K-562 leukemia): 38.1 µM
- TGI (UO-31 renal): 29.5 µM
- TGI (HCC-2998 colon): 32.5 µM
- TGI (RXF 393 renal): 26.2 µM
- TGI (HT29 colon): 31 µM
- TGI (M14 melanoma): 31.7 µM
- TGI (U251 CNS): 28.2 µM
- TGI (KM20L2 colon): 31.3 µM
- TGI (SF-268 CNS): 34.1 µM
- TGI (RPMI-8226 leukemia): 58 µM
- TGI (HL-60(TB) leukemia): 35.8 µM
- TGI (NCI-H23 lung): 36.1 µM
- TGI (A498 renal): 28 µM
- TGI (SNB-19 CNS): 34.9 µM
- TGI (MOLT-4 leukemia): 52.6 µM
- TGI (SNB-75 CNS): 35.2 µM
- TGI (ACHN renal): 40.9 µM
- TGI (SNB-78 CNS): 58.9 µM
- TGI (CCRF-CEM leukemia): 42 µM
- TGI (SR leukemia): 69.3 µM
- TGI (IGROV1 ovarian): 33 µM
- TGI (HOP-62 NSCLC): 30 µM
- TGI (SK-MEL-28 melanoma): 31.1 µM
- TGI (DLD-1 colon): 30.7 µM
- TGI (A549 NSCLC): 33.9 µM
- TGI (DMS 114 small cell lung): 43.5 µM
- TGI (UACC-257 melanoma): 29.3 µM
- TGI (OVCAR-4 ovarian): 42.2 µM
- TGI (COLO 205 colon): 33.5 µM
- TGI (M19-MEL melanoma): 31.2 µM
- TGI (SK-MEL-2 melanoma): 30 µM
- TGI (NCI-H522 lung): 29.3 µM
- TGI (HOP-18 NSCLC): 36.9 µM
- TGI (SF-295 CNS): 32.3 µM
- TGI (MALME-3M melanoma): 33.5 µM
- TGI (EKVX NSCLC): 39.8 µM
- TGI (SW-620 colon): 36.7 µM
- TGI (SN12C renal): 31.4 µM
- TGI (SK-OV-3 ovarian): 37.1 µM
- TGI (NCI-H226 lung): 37.5 µM
- TGI (SF-539 CNS): 30 µM
- TGI (786-0 renal): 33.4 µM
- TGI (DMS 273 small cell lung): 30 µM
- TGI (LXFL 529 NSCLC): 34.6 µM
- TGI (OVCAR-3 ovarian): 31.1 µM
- TGI (XF 498 CNS): 33.4 µM
- TGI (OVCAR-8 ovarian): 32.6 µM
- TGI (HOP-92 NSCLC): 30.3 µM
- TGI (UACC-62 melanoma): 26.8 µM
- TGI (HCT-116 colon): 27.1 µM
- TGI (HCT-15 colon): 30.3 µM
- TGI (KM12 colon): 29.2 µM

Source: PubChem BioAssay (NCI)
